Experimental findings from patent US8735414B2 (priority 2009, dated 2014) are described below.

The subject of data set [1] is bicistronic HCV replicon (replicon RNA, GenBank Accession No. AJ242654). As to the kind of experiment: HCV Replicon Assay. The data set is classed as cell-based. The settings on record: Hepatitis C virus, 72 h, read-out: Replicon IC50.

As for `CCc1cc2c(cc1F)c(C#N)c(-c1ccc(S(=O)(=O)N[C@@H](C)C(F)(F)F)cn1)n2-c1ccc(Cl)cc1` [compound 1003, 6-[1-(4-chlorophenyl)-3-cyano-6-ethyl-5-fluoro-1H-indol-2-yl]-N-[(2S)-1,1,1-trifluoropropan-2-yl]pyridine-3-sulfonamide], the melting point was in the range of 279 to 289 °C. The IC50 in data set [1] is under 500 nM.
Take `CCc1cc2c(cc1F)c(C#N)c(-c1ccc(S(=O)(=O)N[C@@H](C)C(F)(F)F)cn1)n2-c1ccc(OC)cc1` [compound 1005, 6-[3-cyano-6-ethyl-5-fluoro-1-(4-methoxyphenyl)-1H-indol-2-yl]-N-[(2S)-1,1,1-trifluoropropan-2-yl]pyridine-3-sulfonamide]: the melting point was in the range of 261 to 266 °C. For the same molecule, the half-maximal inhibitory concentration (IC50) in data set [1] was under 500 nM.
For `CCc1cc2c(cc1F)c(C#N)c(-c1ccc(S(=O)(=O)N[C@@H](C)C(F)(F)F)cn1)n2-c1ccc(C(F)(F)F)cc1` [compound 1006, 6-{3-cyano-6-ethyl-5-fluoro-1-[4-(trifluoromethyl)phenyl]-1H-indol-2-yl}-N-[(2S)-1,1,1-trifluoropropan-2-yl]pyridine-3-sulfonamide], in that order: 276 to 282 °C and 500 to 2000 nM.
For `CCc1cc2c(cc1F)c(C#N)c(-c1ccc(S(=O)(=O)N[C@@H](C)C(F)(F)F)cn1)n2-c1ccc(C#N)cc1` [compound 1007, 6-[3-cyano-1-(4-cyanophenyl)-6-ethyl-5-fluoro-1H-indol-2-yl]-N-[(2S)-1,1,1-trifluoropropan-2-yl]pyridine-3-sulfonamide], in that order: 288 to 293 °C and under 500 nM.
`CCc1cc2c(cc1F)c(C#N)c(-c1ccc(S(=O)(=O)N[C@@H](C)C(F)(F)F)cn1)n2-c1cccc(F)c1` [compound 1008, 6-[3-cyano-6-ethyl-5-fluoro-1-(3-fluorophenyl)-1H-indol-2-yl]-N-[(2S)-1,1,1-trifluoropropan-2-yl]pyridine-3-sulfonamide] gave a melting point of 210 to 214 °C. The IC50 in data set [1] is under 500 nM.
The molecule `CCc1cc2c(cc1F)c(C#N)c(-c1ccc(S(=O)(=O)N[C@@H](C)C(F)(F)F)cn1)n2-c1cccc(C)c1` [compound 1009, 6-[3-cyano-6-ethyl-5-fluoro-1-(3-methylphenyl)-1H-indol-2-yl]-N-[(2S)-1,1,1-trifluoropropan-2-yl]pyridine-3-sulfonamide] yielded a melting point of 193 to 198 °C. The half-inhibitory concentration (IC50) in data set [1] was under 500 nM.
`CCc1cc2c(cc1F)c(C#N)c(-c1ccc(S(=O)(=O)N[C@@H](C)C(F)(F)F)cn1)n2-c1cccc(OC)c1` [compound 1010, 6-[3-cyano-6-ethyl-5-fluoro-1-(3-methoxyphenyl)-1H-indol-2-yl]-N-[(2S)-1,1,1-trifluoropropan-2-yl]pyridine-3-sulfonamide] came in with a melting point of 229 to 233 °C. Besides, the IC50 in data set [1] is under 500 nM.
As for `CCc1cc2c(cc1F)c(C#N)c(-c1ccc(S(=O)(=O)N[C@@H](C)C(F)(F)F)cn1)n2-c1cccc(C(F)(F)F)c1` [compound 1011, 6-{3-cyano-6-ethyl-5-fluoro-1-[3-(trifluoromethyl)phenyl]-1H-indol-2-yl}-N-[(2S)-1,1,1-trifluoropropan-2-yl]pyridine-3-sulfonamide], the melting point lay in the range of 240 to 245 °C. Moreover, the half-inhibitory concentration (IC50) in data set [1] fell in the range of 500 to 2000 nM.
On to `CCc1cc2c(cc1F)c(C#N)c(-c1ccc(S(=O)(=O)N[C@@H](C)C(F)(F)F)cn1)n2-c1cccc(C#N)c1` [compound 1012, 6-[3-cyano-1-(3-cyanophenyl)-6-ethyl-5-fluoro-1H-indol-2-yl]-N-[(2S)-1,1,1-trifluoropropan-2-yl]pyridine-3-sulfonamide], for which the melting point is 244 to 248 °C. Besides, in data set [1], the IC50 fell in the range of 500 to 2000 nM.
Molecule `Cc1cc2c(cc1F)c(C#N)c(-c1ccc(S(=O)(=O)N[C@@H](C)C(F)(F)F)cn1)n2-c1ccnc(F)c1` [compound 1013, 6-[3-cyano-5-fluoro-1-(2-fluoropyridin-4-yl)-6-methyl-1H-indol-2-yl]-N-[(2S)-1,1,1-trifluoropropan-2-yl]pyridine-3-sulfonamide] had a melting point of 243.4 to 246.9 °C. Moreover, the IC50 in data set [1] is under 500 nM.
In turn, `Cc1cc2c(cc1F)c(C#N)c(-c1ccc(S(=O)(=O)N[C@@H](C)C(F)(F)F)cn1)n2-c1ccncc1F` [compound 1014, 6-[3-cyano-5-fluoro-1-(3-fluoropyridin-4-yl)-6-methyl-1H-indol-2-yl]-N-[(2S)-1,1,1-trifluoropropan-2-yl]pyridine-3-sulfonamide] gave a melting point of 204.2 to 210.5 °C. For the same molecule, in data set [1], the IC50 was under 500 nM.
Molecule `Cc1cc2c(cc1F)c(C#N)c(-c1ccc(S(=O)(=O)N[C@@H](C)C(F)(F)F)cn1)n2-c1ccc(F)nc1` [compound 1015, 6-[3-cyano-5-fluoro-1-(6-fluoropyridin-3-yl)-6-methyl-1H-indol-2-yl]-N-[(2S)-1,1,1-trifluoropropan-2-yl]pyridine-3-sulfonamide] had a melting point of 246.8 to 252.7 °C. For the same molecule, in data set [1], the IC50 was under 500 nM.
Take `Cc1cc2c(cc1F)c(C#N)c(-c1ccc(S(=O)(=O)N[C@@H](C)C(F)(F)F)cn1)n2-c1cnn(C)c1` [compound 1016, 6-[3-cyano-5-fluoro-6-methyl-1-(1-methyl-1H-pyrazol-4-yl)-1H-indol-2-yl]-N-[(2S)-1,1,1-trifluoropropan-2-yl]pyridine-3-sulfonamide]: the melting point was 233.7 to 239.3 °C. Also, the IC50 in data set [1] is under 500 nM.
Regarding `Cc1cnc(-n2c(-c3ccc(S(=O)(=O)N[C@@H](C)C(F)(F)F)cn3)c(C#N)c3cc(F)c(C)cc32)s1` [compound 1017, 6-[3-cyano-5-fluoro-6-methyl-1-(5-methyl-1,3-thiazol-2-yl)-1H-indol-2-yl]-N-[(2S)-1,1,1-trifluoropropan-2-yl]pyridine-3-sulfonamide], the melting point lay in the range of 223.1 to 228.1 °C. In addition, the IC50 in data set [1] is under 500 nM.
For `CCc1cc2c(cc1F)c(C#N)c(-c1ccc(S(=O)(=O)N[C@@H](C)C(F)(F)F)cn1)n2-c1cccc(Cl)c1` [compound 1018, 6-[1-(3-chlorophenyl)-3-cyano-6-ethyl-5-fluoro-1H-indol-2-yl]-N-[(2S)-1,1,1-trifluoropropan-2-yl]pyridine-3-sulfonamide], the melting point is 195 to 198 °C. Further, the IC50 in data set [1] is under 500 nM.
Consider `CCc1cc2c(cc1F)c(C(N)=O)c(-c1ccc(S(=O)(=O)N[C@@H](C)C(F)(F)F)cn1)n2-c1ccc(F)cc1` [compound 1019, 6-ethyl-5-fluoro-1-(4-fluorophenyl)-2-(5-{[(2S)-1,1,1-trifluoropropan-2-yl]sulfamoyl}pyridin-2-yl)-1H-indole-3-carboxamide], for which the melting point lay within 210 to 217 °C. Moreover, the IC50 in data set [1] was under 500 nM.
On the same counts, the results for `CCc1cc2c(cc1F)c(C(N)=O)c(-c1ccc(S(=O)(=O)N[C@@H](C)C(F)(F)F)cn1)n2-c1ccc(Cl)cc1` [compound 1020, 1-(4-chlorophenyl)-6-ethyl-5-fluoro-2-(5-{[(2S)-1,1,1-trifluoropropan-2-yl]sulfamoyl}pyridin-2-yl)-1H-indole-3-carboxamide] are 240 to 247 °C and under 500 nM.
On the same counts, the results for `CCc1cc2c(cc1F)c(C(N)=O)c(-c1ccc(S(=O)(=O)N[C@@H](C)C(F)(F)F)cn1)n2-c1ccc(C)cc1` [compound 1021, 6-ethyl-5-fluoro-1-(4-methylphenyl)-2-(5-{[(2S)-1,1,1-trifluoropropan-2-yl]sulfamoyl}pyridin-2-yl)-1H-indole-3-carboxamide] are 228 to 233 °C and under 500 nM.
`CCc1cc2c(cc1F)c(C(N)=O)c(-c1ccc(S(=O)(=O)N[C@@H](C)C(F)(F)F)cn1)n2-c1ccc(C(F)(F)F)cc1` [compound 1022, 6-ethyl-5-fluoro-1-[4-(trifluoromethyl)phenyl]-2-(5-{[(2S)-1,1,1-trifluoropropan-2-yl]sulfamoyl}pyridin-2-yl)-1H-indole-3-carboxamide] came in with a melting point of 253 to 259 °C. Besides, the IC50 in data set [1] was under 500 nM.
For `CCc1cc2c(cc1F)c(C(N)=O)c(-c1ccc(S(=O)(=O)N[C@@H](C)C(F)(F)F)cn1)n2-c1cccc(Cl)c1` [compound 1027, 1-(3-chlorophenyl)-6-ethyl-5-fluoro-2-(5-{[(2S)-1,1,1-trifluoropropan-2-yl]sulfamoyl}pyridin-2-yl)-1H-indole-3-carboxamide], the melting point was in the range of 200 to 205 °C. Besides, the half-inhibitory concentration (IC50) in data set [1] was under 500 nM.
Regarding `CCc1cc2c(cc1F)c(C(=O)O)c(-c1ncc(NS(=O)(=O)C(C)(C)C)cn1)n2C1CCCCC1` [compound 1028, 2-{5-[(tert-butylsulfonyl)amino]pyrimidin-2-yl}-1-cyclohexyl-6-ethyl-5-fluoro-1H-indole-3-carboxylic acid], the melting point lay within 236 to 237 °C. Besides, the IC50 in data set [1] lay in the range of 2000 to 5000 nM.
On the same counts, the results for `Cc1cc2c(cc1F)c(C#N)c(-c1ccc(S(=O)(=O)N[C@@H](C)C(F)(F)F)cn1)n2-c1c[nH]nc1C` [compound 1030, 6-[3-cyano-5-fluoro-6-methyl-1-(3-methyl-1H-pyrazol-4-yl)-1H-indol-2-yl]-N-[(2S)-1,1,1-trifluoropropan-2-yl]pyridine-3-sulfonamide] are 238.8 to 244 °C and 500 to 2000 nM.
Molecule `Cc1ccc(-n2c(-c3ccc(S(=O)(=O)N[C@@H](C)C(F)(F)F)cn3)c(C#N)c3cc(F)c(C)cc32)s1` [compound 1031, 6-[3-cyano-5-fluoro-6-methyl-1-(5-methylthiophen-2-yl)-1H-indol-2-yl]-N-[(2S)-1,1,1-trifluoropropan-2-yl]pyridine-3-sulfonamide] showed a melting point of 246.8 to 249.4 °C. The concentration for half-maximal inhibition (IC50) in data set [1] is under 500 nM.
On the same counts, the results for `Cc1cc2c(cc1F)c(C#N)c(-c1ccc(S(=O)(=O)N[C@@H](C)C(F)(F)F)cn1)n2-c1ccc(Cl)s1` [compound 1032, 6-[1-(5-chlorothiophen-2-yl)-3-cyano-5-fluoro-6-methyl-1H-indol-2-yl]-N-[(2S)-1,1,1-trifluoropropan-2-yl]pyridine-3-sulfonamide] are 244.8 to 247.4 °C and under 500 nM.

Usually melting point stands for the temperature of the solid-liquid transition. A word on the IC50: it is the concentration needed to halve the response being measured.
